Test results published in patent publication US20080076786A1, “USE OF RADICAL-SCAVENGING COMPOUNDS FOR TREATMENT AND PREVENTION OF NO-DEPENDENT MICROCIRCULATION DISORDERS” (priority 2001, published 2008).

What was measured:
[1] = system: reoccurrence of myocardial infarcts (MI); settings: chronic application, published meta analysis; cited from earlier work
stroke risk = settings: ESPS-2, compared with low-dose aspirin / aspirin alone; cited from earlier work
NO Synthetase = NO Synthetase knock-out mice, NO synthetase activity blocked or partially inhibited; assay type: in vivo; settings: NO Synthetase activity blocked or reduced; compared with pravastatin on elevating NO production
[2] = system: oxygen radicals and proteinuria; settings: experimental animals with aminonucleoside nephropathy; cited from earlier work
lipid peroxidation = settings: human nonneoplastic lung tissue; cited from earlier work

## CC(=O)Oc1ccccc1C(=O)O [Aspirin, acetyl salicylic acid]
[1]
  reduction of the incidence of reoccurrence of myocardial infarcts: 18%

## OCCN(CCO)c1nc(N2CCCCC2)c2nc(N(CCO)CCO)nc(N3CCCCC3)c2n1 [Dipyridamole, 2,6-bis(diethanolamino)-4,8-dipiperidino-pyrimido[5,4-d]pyrimidine]
Stroke risk
  reduction of stroke risk: as effective as low-dose aspirin
NO Synthetase
  effect of NO sparing (preventing NO destruction): seen as independent effect
[2]
  oxygen radicals and proteinuria: suppress oxygen radicals and proteinuria
Lipid peroxidation
  lipid peroxidation: Inhibition of lipid peroxidation
